# Data as given in paper PMC3695357, “Identification of Novel IGF1R Kinase Inhibitors by Molecular Modeling and High-Throughput Screening” (Acta Naturae, 2013).
# Key:
# Type in all cases: biochemical
# Syk kinase = Syk kinase (Homo sapiens, UniProt P43405); assay: Syk ADP-Glo kinase selectivity assay, single concentration; conditions: remaining kinase activity at 40 μM compound, 50 μM ATP
# Protocol: (§1) Kinase selectivity assays with InsR (dose-response measurements) and Met, Syk and BTK kinases (single point compound concentrations) using the ADP-Glo readout system were run under optimized experimental conditions similar to the IGF1R assay with regard to the kinetic parameters of kinase reactions.
# (§2) The amounts of the Met, Syk, and BTK enzymes and the incubation time were optimized to ensure an ATP conversion not higher than 20% in all cases. The typical assay window (signal/background) was 3–5 for all kinases. The final volumes of the Met, Syk, and BTK kinase assay reaction mixtures were 5 μL. Two μL of the enzyme solution in a 1× reaction buffer (6 ng Met, 8 ng BTK, 4 ng Syk), 1 μL of the compound solution in a 2× reaction buffer, the ATP and substrate mixture in a 0.5× reaction mixture were added sequentially. The composition of the 1× reaction buffer was 40 mM Tris, 20 mM magnesium chloride, 0.1 mg/ml bovine serum albumin, 500 μM DTT at pH 7.5 with 1% final concentration of the DMSO, 50 μM ATP, and 0.2 mg/ml Poly(Glu4, Tyr1) substrates. The buffer was supplemented with 2 mM manganese (II) chloride in the case of BTK kinase. Compounds were tested at 40 μM concentrations. In each experiment, 6 wells with the enzyme, but no added compounds, were used as negative inhibition controls; 6 wells without tested compounds and the enzyme and 6 wells with the enzyme and 0.5–1 μM staurosporine were used as positive inhibition controls. Pre-incubation of the reaction mixture with compounds prior to ATP addition was performed for 20 min at 25°C in all experiments. The incubation of the reaction mixture lasted for 25 min at 37°C. All compounds were tested in 4 to 6 repeats. Conditions of ADP detection were as follows: 40 min incubation with an ADP-Glo reagent, followed by 30 min with a detection reagent at 25°C. Luminescence was read using a BMG Polarstar Omega reader at a gain setting of 4095 and measurement time of 0.5 s.
# Met kinase = Met kinase (Homo sapiens, UniProt P08581); assay: Met ADP-Glo kinase selectivity assay, single concentration; conditions: remaining kinase activity at 40 μM compound, 50 μM ATP
# Protocol: as §1, §2
# IGF1R kinase [1] = molecular target: T1, IGF1R kinase (Homo sapiens, UniProt P08069); assay: IGF1R ADP-Glo kinase assay, dose-response; conditions: for IC50: ADP-Glo, 8-point curves from 100 μM, 50 μM ATP; for selectivity for IGF1R versus InsR: from IC50 values of Table 1
# T1 construct: This assay utilizes a recombinant intracellular kinase domain fragment of IGF1R; purchased Promega Corp
# Protocol: (§3) Multi-well liquid dispensing for setting up assays was performed using either the robotic liquid handler PlateMate Plus or the manual electronic multichannel micropipettes Matrix Impact (Thermo Scientific, Hudson, NH, USA). High-throughput Screening (HTS), kinase selectivity, and dose-response (IC50) assays were read in the luminescence mode using the PolarStar Omega reader (BMG Labtech, Ortenberg, Germany) or M5 reader (Molecular Devices Corp., Sunnyvale, CA). IGF1R ADP-Glo data in relative luminescence units (RLU) were collected from the plate readers, and the percentage of activity (% Activity) was determined for each point as follows: % Activity = 100*(RLU sample – RLU no kinase control avg)/(RLU kinase control avg – RLU no kinase control avg). The screening data were processed and visualized using Microsoft Excel templates designed to calculate the inhibition values, the Z’-factor, and GraphPad Prism 5 (GraphPad Software, Inc., La Jolla, CA) for IC50 analysis. The doseresponse curves of Percent Activity were fit in Prism, using a sigmoidal variable slope fit with the maximum % activity and the minimum % activity fixed at 100% and 0%, respectively. The Z′ factor, a statistical measure of variability and reproducibility for HTS assays, was determined using the following formula: Z′ = 1-[3 × (SDsample+SDcontol)/|Msample-Mcontrol|] [12], where SD denotes the standard deviation and M denotes the mean for the samples and controls, respectively. Prior to starting HTS, assay conditions were optimized and validated with regard to the maximum ATP turnover (never exceeding 20%), an acceptable signal-to-background ratio (“assay window”) of at least 6, an acceptable Z’-factor of at least 0.6, as well as day-to-day and plate-to-plate reproducibility of the screening data. All primary screening was performed at 20 μM compound concentrations, and some of the weak hits were subsequently re-tested at higher concentrations (40 or 80 μM) for confirmation. Statistically significant HTS hits in the primary screening were defined as those that produced a kinase activity signal at least three standard deviations lower than the mean of the assay plate run (not including the plate controls). Lineweaver- Burk plots were created in Excel or Prism using the standard algorithms. All assay development and validation and high-throughput screening procedures were carried out according to the general guidelines as published on the U.S. National Chemical Genomics Center web site (NC GC Assay Guidance Manual and High-throughput Assay Guidance Criteria, http://www.ncbi.nlm.nih.gov/books/NBK53196/).
# IGF1R high throughput screening (HTS) assays using the IGF1R Kinase System and ADP-Glo readout system (Promega Corp.) were performed in a final volume of 7 μL per test compound using a 384-well small volume microplate format. All liquid dispensing was done using the PlateMate Plus robotic liquid handler. 3 μL aliquots of the enzyme/substrate mixture containing 1 μg of the IGF1Rtide peptide substrate and 4 ng of recombinant IGF1R kinase in a 0.66× assay buffer were transferred to the plate wells. The assay buffer (1×) consisted of 40 mM Tris chloride, 20 mM magnesium chloride, 0,1 mg/ml bovine serum albumin, 2 mM manganese chloride, and 250 μM dithiothreitol (DTT ). To add the tested compounds to the reaction, starting stocks of 10 mM compounds in dimethyl sulfoxide (DMSO) were diluted with DMSO to 2 mM. Next, 3 μL aliquots of 2 mM compound stock solutions in DMSO were transferred to 83 μL volumes of a 1× reaction buffer and thoroughly mixed. Aqueous compound solution aliquots of 2 μL were then transferred into the assay plate to get a final concentration of each compound of 20 μM in 1% DMSO. The plates were pre-incubated at 27°C for 10 min with gentle shaking (300 rpm). The assay was started by adding 2 μL of the ATP stock solution to the reaction mixture to achieve a final ATP concentration of 50 μM. […]
# InsR kinase = molecular target: T2, InsR kinase (Homo sapiens, UniProt P06213); assay: InsR ADP-Glo kinase assay, dose-response; conditions: for IC50: ADP-Glo, 8-point curves from 100 μM; for stronger inhibition of InsR versus IGF1R: from IC50 values of Table 1
# T2 construct: the amount of recombinant insulin receptor kinase was 2 ng per well
# Protocol: as §1
# Dose-response and IC50 measurements for the confirmed screening hits were conducted for IGF1R and InsR kinases. The conditions were similar to the HTS conditions described above, except that the compounds were plated in 8-point curves serially diluted 1:2 from 100 μM top concentrations and with a 1% final DMSO throughout, in quadruplicates for each compound dilution point. The time of incubation of kinase reaction mixtures was 2.5 or 4.5 hours at 27°C in different experiments both for the insulin kinase receptor and IGF1R, the dithiotreitol (DTT ) concentration was 500 μM, and the amount of recombinant insulin receptor kinase was 2 ng per well. DTT concentration was elevated to enhance the stability of the enzymes during 4.5 h incubation experiments. Compounds were typically serially 2-fold diluted in pure DMSO starting from 10 mM down to 19.5 μM to produce the final concentrations ranging from […] in a 1% DMSO-aqueous reaction buffer.
# BTK kinase = BTK kinase (Homo sapiens, UniProt Q06187); assay: BTK ADP-Glo kinase selectivity assay, single concentration; conditions: remaining kinase activity at 40 μM compound, 50 μM ATP
# Protocol: as §1, §2
# IGF1R kinase [2] = molecular target: T1, IGF1R kinase; assay: Michaelis-Menten kinetics / Lineweaver-Burk competition analysis; conditions: Lineweaver-Burk plot; for inhibition mechanism with regard to ATP: IGF1Rtide 143 μg/ml, ATP titrated; for inhibition mechanism with regard to the substrate: poly(Glu4,Tyr1) titrated, ATP 250 μM
# Protocol: as §3
# Serial dilutions of ATP and substrate polypeptide poly(Glu4,Tyr1) were tested in IGF1R kinase assays with the inhibitors L1 and T4 to produce the kinetic data for Lineweaver-Burk plots. […]
# T2 sequence (P06213 28-1382): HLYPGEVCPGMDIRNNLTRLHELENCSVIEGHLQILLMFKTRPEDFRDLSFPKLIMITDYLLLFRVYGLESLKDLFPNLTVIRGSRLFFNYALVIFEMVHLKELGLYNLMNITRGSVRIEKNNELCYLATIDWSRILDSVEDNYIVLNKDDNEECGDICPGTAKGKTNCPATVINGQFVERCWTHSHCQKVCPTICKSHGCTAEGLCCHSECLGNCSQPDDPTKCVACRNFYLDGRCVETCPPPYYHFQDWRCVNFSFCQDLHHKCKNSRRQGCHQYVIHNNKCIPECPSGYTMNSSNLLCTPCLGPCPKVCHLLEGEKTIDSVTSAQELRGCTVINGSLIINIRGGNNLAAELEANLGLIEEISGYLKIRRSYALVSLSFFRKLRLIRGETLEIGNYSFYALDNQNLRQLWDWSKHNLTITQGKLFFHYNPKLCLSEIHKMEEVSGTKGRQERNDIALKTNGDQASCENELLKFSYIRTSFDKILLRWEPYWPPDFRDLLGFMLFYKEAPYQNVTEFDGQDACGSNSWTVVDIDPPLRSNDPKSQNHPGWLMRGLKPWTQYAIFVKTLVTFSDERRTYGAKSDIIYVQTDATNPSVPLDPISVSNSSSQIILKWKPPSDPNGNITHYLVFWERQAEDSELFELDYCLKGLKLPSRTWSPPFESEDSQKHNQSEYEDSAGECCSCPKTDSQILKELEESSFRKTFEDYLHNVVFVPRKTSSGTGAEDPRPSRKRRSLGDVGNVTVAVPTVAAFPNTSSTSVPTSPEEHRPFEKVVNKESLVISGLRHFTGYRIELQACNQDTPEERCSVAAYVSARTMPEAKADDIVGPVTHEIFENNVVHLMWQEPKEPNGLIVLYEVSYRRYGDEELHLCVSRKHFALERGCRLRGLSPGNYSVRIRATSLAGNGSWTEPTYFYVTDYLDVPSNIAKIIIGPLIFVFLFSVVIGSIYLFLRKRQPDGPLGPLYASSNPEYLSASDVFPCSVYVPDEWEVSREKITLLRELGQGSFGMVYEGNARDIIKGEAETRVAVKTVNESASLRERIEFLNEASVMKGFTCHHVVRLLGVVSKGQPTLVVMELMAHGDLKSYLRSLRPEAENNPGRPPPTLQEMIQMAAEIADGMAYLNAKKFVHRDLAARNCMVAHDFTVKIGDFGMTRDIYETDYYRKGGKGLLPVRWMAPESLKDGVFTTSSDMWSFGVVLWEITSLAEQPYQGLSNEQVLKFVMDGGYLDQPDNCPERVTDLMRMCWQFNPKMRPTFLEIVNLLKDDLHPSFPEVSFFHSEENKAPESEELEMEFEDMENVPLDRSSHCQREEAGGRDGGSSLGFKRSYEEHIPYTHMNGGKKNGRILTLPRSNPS
# T1 sequence (P08069 999-1274 limits assumed): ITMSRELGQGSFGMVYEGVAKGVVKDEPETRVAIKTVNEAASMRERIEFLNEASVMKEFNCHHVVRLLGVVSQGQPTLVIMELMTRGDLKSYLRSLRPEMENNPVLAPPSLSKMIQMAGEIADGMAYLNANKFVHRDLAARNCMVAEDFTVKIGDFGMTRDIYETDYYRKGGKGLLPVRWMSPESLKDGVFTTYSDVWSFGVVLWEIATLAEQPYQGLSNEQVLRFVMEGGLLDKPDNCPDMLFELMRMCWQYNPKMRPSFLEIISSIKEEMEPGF
# Sequence of BTK kinase (Q06187 whole entry): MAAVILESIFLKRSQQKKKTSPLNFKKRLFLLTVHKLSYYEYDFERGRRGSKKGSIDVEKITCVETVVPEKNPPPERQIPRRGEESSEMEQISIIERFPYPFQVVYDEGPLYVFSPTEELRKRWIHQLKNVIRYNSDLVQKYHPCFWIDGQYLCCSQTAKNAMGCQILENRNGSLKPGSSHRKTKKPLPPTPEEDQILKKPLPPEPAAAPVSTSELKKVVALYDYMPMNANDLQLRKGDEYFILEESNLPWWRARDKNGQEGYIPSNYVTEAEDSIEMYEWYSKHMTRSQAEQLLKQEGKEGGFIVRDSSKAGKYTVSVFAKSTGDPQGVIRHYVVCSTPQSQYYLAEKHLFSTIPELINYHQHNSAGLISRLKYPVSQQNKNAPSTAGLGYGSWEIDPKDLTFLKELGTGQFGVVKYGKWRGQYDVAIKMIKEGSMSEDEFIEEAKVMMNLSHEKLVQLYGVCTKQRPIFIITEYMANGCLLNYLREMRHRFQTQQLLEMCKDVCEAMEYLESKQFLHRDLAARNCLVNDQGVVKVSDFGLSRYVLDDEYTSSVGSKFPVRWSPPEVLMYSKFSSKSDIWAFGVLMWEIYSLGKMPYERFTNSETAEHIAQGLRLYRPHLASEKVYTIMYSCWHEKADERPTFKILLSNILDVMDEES
# Sequence of Met kinase (P08581 25-1390): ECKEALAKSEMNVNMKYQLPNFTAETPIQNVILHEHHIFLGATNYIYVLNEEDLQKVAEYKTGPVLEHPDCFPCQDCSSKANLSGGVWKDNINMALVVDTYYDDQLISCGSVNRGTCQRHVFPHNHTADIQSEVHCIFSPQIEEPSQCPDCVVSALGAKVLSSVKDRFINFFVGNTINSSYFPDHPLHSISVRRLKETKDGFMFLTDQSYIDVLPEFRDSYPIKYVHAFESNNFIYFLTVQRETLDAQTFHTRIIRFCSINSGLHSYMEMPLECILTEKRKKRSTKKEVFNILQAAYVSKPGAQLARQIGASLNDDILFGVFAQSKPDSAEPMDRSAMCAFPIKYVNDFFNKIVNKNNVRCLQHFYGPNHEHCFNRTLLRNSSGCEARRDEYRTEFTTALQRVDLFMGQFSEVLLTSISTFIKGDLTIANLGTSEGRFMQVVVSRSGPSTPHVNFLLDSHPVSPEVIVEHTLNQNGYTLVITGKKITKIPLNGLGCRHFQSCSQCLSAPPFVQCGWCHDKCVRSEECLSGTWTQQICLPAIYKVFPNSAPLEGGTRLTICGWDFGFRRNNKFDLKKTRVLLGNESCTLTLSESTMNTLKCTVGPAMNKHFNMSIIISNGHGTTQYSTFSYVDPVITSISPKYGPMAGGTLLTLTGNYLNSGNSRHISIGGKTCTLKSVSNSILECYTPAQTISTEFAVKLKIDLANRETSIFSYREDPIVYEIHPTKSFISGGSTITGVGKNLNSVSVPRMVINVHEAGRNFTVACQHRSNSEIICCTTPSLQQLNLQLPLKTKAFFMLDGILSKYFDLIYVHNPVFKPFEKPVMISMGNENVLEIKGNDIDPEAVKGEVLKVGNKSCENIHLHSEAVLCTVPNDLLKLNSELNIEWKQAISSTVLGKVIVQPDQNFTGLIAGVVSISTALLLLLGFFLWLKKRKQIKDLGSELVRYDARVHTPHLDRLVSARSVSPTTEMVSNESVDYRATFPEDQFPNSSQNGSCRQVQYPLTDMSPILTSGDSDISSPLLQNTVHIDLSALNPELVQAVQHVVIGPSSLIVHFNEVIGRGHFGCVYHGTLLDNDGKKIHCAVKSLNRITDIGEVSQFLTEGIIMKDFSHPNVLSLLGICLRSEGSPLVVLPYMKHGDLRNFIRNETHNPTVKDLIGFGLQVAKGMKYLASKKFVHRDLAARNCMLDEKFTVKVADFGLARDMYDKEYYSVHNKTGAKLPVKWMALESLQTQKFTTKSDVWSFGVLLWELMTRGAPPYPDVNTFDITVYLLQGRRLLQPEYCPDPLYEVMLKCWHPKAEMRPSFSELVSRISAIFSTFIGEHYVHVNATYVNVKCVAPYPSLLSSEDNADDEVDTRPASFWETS
"Activity Syk, % (Syk kinase)","Activity Met, % (Met kinase)",IC50 (IGF1R kinase [1]),selectivity for IGF1R versus InsR (IGF1R kinase [1]),IC50 (InsR kinase),"Activity Btk, % (BTK kinase)",stronger inhibition of InsR versus IGF1R (InsR kinase),inhibition mechanism with regard to ATP (IGF1R kinase [2]),inhibition mechanism with regard to the substrate (IGF1R kinase [2]),SMILES
88%,77%,26 µM,essentially nonselective,29 µM,106%,–,–,–,COc1ccc(NC(=O)c2ccc3c(c2)OCCO3)cc1 [Compound L3]
72%,62%,18 µM,–,30 µM,83%,–,–,–,COc1cc(CNC(=O)c2ccc[nH]c2=S)ccc1OCc1ccncc1 [Compound T2]
84%,78%,~100 µM,–,20 µM,92%,5-10 fold,–,–,NS(=O)(=O)c1ccc(NNC(=O)c2ccc(NS(=O)(=O)c3cccs3)cc2)c([N+](=O)[O-])c1 [Compound T1]
48%,63%,25 µM,–,100 µM,106%,–,–,–,O=C(Nc1ccc2c(c1)OCO2)c1ccc2c(c1)OCCO2 [Compound L2]
115%,98%,~100 µM,–,10 µM,81%,5-10 fold,–,–,CCOc1ccc(NS(=O)(=O)c2ccc3[nH]c(=O)cc(C(=O)Nc4ccn(C)n4)c3c2)cc1 [Compound T3]
53%,60%,25 µM,essentially nonselective,30 µM,113%,–,–,–,O=C(Nc1ccc2nccnc2c1)c1ccc2c(c1)OCCO2 [Compound L4]
115%,75%,7 µM,–,10 µM,82%,–,non-competitive inhibition,non-competitive inhibition,O=C(NCc1ccc(Cn2ccnc2)cc1)c1ccc[nH]c1=S [Compound T4]
109%,102%,18 µM,essentially nonselective,22 µM,98%,–,non-competitive inhibition,non-competitive inhibition,O=C(Nc1ccc2c(c1)OCCO2)c1ccc2c(c1)OCCO2 [Compound L1]
